System: 454973-116-R2-J3-PDC complex spheroid viability
Test: Anticancer human tumor 454973-116-R2-J3-PDC patient-derived pancreatic carcinoma cell line growth inhibition [POLQ]
Conditions: for IC50: curve of first compound; for viability, T/C: stronger effect = lower value
Method in brief: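 Growth inhibition in 3D: complex spheroids (tumor PDC, HUVEC, MSC) treated with POLQ inhibitor combinations; where Cmax unknown, highest tested concentration 10 microM, except SN-38 at 1 microM.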

[1] = second compound 0.0316 µM, first compound 0.0316 µM
[2] = second compound 0.0316 µM, first compound 0.1 µM
[3] = second compound 0.0316 µM, first compound 0.316 µM
[4] = second compound 0.0316 µM, first compound 1 µM
[5] = second compound 0.0316 µM, first compound 3.16 µM
[6] = second compound 0.0316 µM, first compound 10 µM
[7] = second compound 0.1 µM, first compound 0.0316 µM
[8] = second compound 0.1 µM, first compound 0.1 µM
[9] = second compound 0.1 µM, first compound 0.316 µM
[10] = second compound 0.1 µM, first compound 1 µM
[11] = second compound 0.1 µM, first compound 3.16 µM
[12] = second compound 0.1 µM, first compound 10 µM
[13] = second compound 0.316 µM, first compound 0.0316 µM
[14] = second compound 0.316 µM, first compound 0.1 µM
[15] = second compound 0.316 µM, first compound 0.316 µM
[16] = second compound 0.316 µM, first compound 1 µM
[17] = second compound 0.316 µM, first compound 3.16 µM
[18] = second compound 0.316 µM, first compound 10 µM
[19] = second compound 1 µM, first compound 0.0316 µM
[20] = second compound 1 µM, first compound 0.1 µM
[21] = second compound 1 µM, first compound 0.316 µM
[22] = second compound 1 µM, first compound 1 µM
[23] = second compound 1 µM, first compound 3.16 µM
[24] = second compound 1 µM, first compound 10 µM
[25] = second compound 3.16 µM, first compound 0.0316 µM
[26] = second compound 3.16 µM, first compound 0.1 µM
[27] = second compound 3.16 µM, first compound 0.316 µM
[28] = second compound 3.16 µM, first compound 1 µM
[29] = second compound 3.16 µM, first compound 3.16 µM
[30] = second compound 3.16 µM, first compound 10 µM
[31] = second compound 10 µM, first compound 0.0316 µM
[32] = second compound 10 µM, first compound 0.1 µM
[33] = second compound 10 µM, first compound 0.316 µM
[34] = second compound 10 µM, first compound 1 µM
[35] = second compound 10 µM, first compound 3.16 µM
[36] = second compound 10 µM, first compound 10 µM
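Also: spheroids exposed to drugs for seven days before measurement.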
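For viability, T/C in this document: percent viability relative to DMSO vehicle control wells taken as 100%.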

O=C(Nc1ccc(O)c(NS(=O)(=O)c2ccc(F)cc2)c1)c1ccc(-c2ccccc2)cc1 + Cc1cccc(N(C)C(=O)C2C(O)CCN2c2nc(C)cc(C(F)(F)F)c2C#N)c1
IC50 (second compound 0.0316 µM): > 10000 nM
IC50 (second compound 0.1 µM): > 10000 nM
IC50 (second compound 0.316 µM): > 10000 nM
IC50 (second compound 1 µM): > 10000 nM
IC50 (second compound 3.16 µM): > 10000 nM
IC50 (second compound 10 µM): > 10000 nM
viability, T/C [1]: 98.1%
viability, T/C [2]: 108%
viability, T/C [3]: 87.1%
viability, T/C [4]: 100%
viability, T/C [5]: 114%
viability, T/C [6]: 82.2%
viability, T/C [7]: 96.8%
viability, T/C [8]: 97.2%
viability, T/C [9]: 101%
viability, T/C [10]: 111%
viability, T/C [11]: 102%
viability, T/C [12]: 85.1%
viability, T/C [13]: 105%
viability, T/C [14]: 92.7%
viability, T/C [15]: 102%
viability, T/C [16]: 106%
viability, T/C [17]: 110%
viability, T/C [18]: 84.9%
viability, T/C [19]: 98.9%
viability, T/C [20]: 98.1%
viability, T/C [21]: 100%
viability, T/C [22]: 103%
viability, T/C [23]: 108%
viability, T/C [24]: 85%
viability, T/C [25]: 107%
viability, T/C [26]: 98.2%
viability, T/C [27]: 98.4%
viability, T/C [28]: 103%
viability, T/C [29]: 112%
viability, T/C [30]: 81.4%
viability, T/C [31]: 102%
viability, T/C [32]: 105%
viability, T/C [33]: 104%
viability, T/C [34]: 105%
viability, T/C [35]: 95.8%
viability, T/C [36]: 74.3%

CC[C@@]1(O)C(=O)OCc2c1cc1n(c2=O)Cc2cc3c(CN(C)C)c(O)ccc3nc2-1 + Nc1ccc(C#CCN(C(=O)Cc2ncc(C(F)(F)F)cc2C(F)(F)F)c2ccc(F)cc2)nn1
IC50 (second compound 0.0316 µM): 15.7 nM
IC50 (second compound 0.1 µM): 15.8 nM
IC50 (second compound 0.316 µM): 15 nM
IC50 (second compound 1 µM): 15.6 nM
IC50 (second compound 3.16 µM): 16.1 nM
IC50 (second compound 10 µM): 17.2 nM
viability, T/C (second compound 0.0316 µM, first compound 0.000316 µM): 105%
viability, T/C (second compound 0.0316 µM, first compound 0.001 µM): 106%
viability, T/C (second compound 0.0316 µM, first compound 0.00316 µM): 98.9%
viability, T/C (second compound 0.0316 µM, first compound 0.01 µM): 73.7%
viability, T/C [1]: 13.2%
viability, T/C [2]: 10.1%
viability, T/C (second compound 0.1 µM, first compound 0.000316 µM): 107%
viability, T/C (second compound 0.1 µM, first compound 0.001 µM): 104%
viability, T/C (second compound 0.1 µM, first compound 0.00316 µM): 97.3%
viability, T/C (second compound 0.1 µM, first compound 0.01 µM): 73.2%
viability, T/C [7]: 14.2%
viability, T/C [8]: 10.4%
viability, T/C (second compound 0.316 µM, first compound 0.000316 µM): 106%
viability, T/C (second compound 0.316 µM, first compound 0.001 µM): 102%
viability, T/C (second compound 0.316 µM, first compound 0.00316 µM): 107%
viability, T/C (second compound 0.316 µM, first compound 0.01 µM): 71.2%
viability, T/C [13]: 10.7%
viability, T/C [14]: 12.3%
viability, T/C (second compound 1 µM, first compound 0.000316 µM): 111%
viability, T/C (second compound 1 µM, first compound 0.001 µM): 110%
viability, T/C (second compound 1 µM, first compound 0.00316 µM): 94.5%
viability, T/C (second compound 1 µM, first compound 0.01 µM): 73.2%
viability, T/C [19]: 13.2%
viability, T/C [20]: 12.3%
viability, T/C (second compound 3.16 µM, first compound 0.000316 µM): 111%
viability, T/C (second compound 3.16 µM, first compound 0.001 µM): 113%
viability, T/C (second compound 3.16 µM, first compound 0.00316 µM): 98.7%
viability, T/C (second compound 3.16 µM, first compound 0.01 µM): 76.5%
viability, T/C [25]: 11.9%
viability, T/C [26]: 10.3%
viability, T/C (second compound 10 µM, first compound 0.000316 µM): 122%
viability, T/C (second compound 10 µM, first compound 0.001 µM): 110%
viability, T/C (second compound 10 µM, first compound 0.00316 µM): 104%
viability, T/C (second compound 10 µM, first compound 0.01 µM): 86.1%
viability, T/C [31]: 8.55%
viability, T/C [32]: 9.22%

COc1cccc2c1C(=O)c1c(O)c3c(c(O)c1C2=O)CC(O)(C(=O)CO)CC3OC1CC(N)C(O)C(C)O1 (stereo unspecified) + Nc1ccc(C#CCN(C(=O)Cc2ncc(C(F)(F)F)cc2C(F)(F)F)c2ccc(F)cc2)nn1
IC50 (second compound 0.0316 µM): 37.4 nM
IC50 (second compound 0.1 µM): 36 nM
IC50 (second compound 0.316 µM): < 31.6 nM
IC50 (second compound 1 µM): < 31.6 nM
IC50 (second compound 3.16 µM): 32.2 nM
IC50 (second compound 10 µM): < 31.6 nM
viability, T/C [1]: 55.6%
viability, T/C [2]: 19.3%
viability, T/C [3]: 15.8%
viability, T/C [4]: 5.05%
viability, T/C [5]: 0.67%
viability, T/C [6]: 0.12%
viability, T/C [7]: 54.4%
viability, T/C [8]: 20.7%
viability, T/C [9]: 14.5%
viability, T/C [10]: 6.06%
viability, T/C [11]: 1.06%
viability, T/C [12]: 0.39%
viability, T/C [13]: 50.5%
viability, T/C [14]: 20.4%
viability, T/C [15]: 11.7%
viability, T/C [16]: 4.87%
viability, T/C [17]: 0.69%
viability, T/C [18]: 0.21%
viability, T/C [19]: 49.6%
viability, T/C [20]: 19.9%
viability, T/C [21]: 16.4%
viability, T/C [22]: 4.25%
viability, T/C [23]: 0.36%
viability, T/C [24]: 0.66%
viability, T/C [25]: 51.6%
viability, T/C [26]: 17.8%
viability, T/C [27]: 14.6%
viability, T/C [28]: 3.6%
viability, T/C [29]: 0.55%
viability, T/C [30]: 0.26%
viability, T/C [31]: 48.2%
viability, T/C [32]: 12.7%
viability, T/C [33]: 10.2%
viability, T/C [34]: 3.36%
viability, T/C [35]: 0.54%
viability, T/C [36]: 0.27%

— PubChem BioAssay AID1963846 (Molecular Pharmacology Branch, DTP, NCI, 2024)
